Experimental data as given in patent US20180186769A1, “6-AMINO-5-FLUORO-5-(FLUOROMETHYL)-2,3,4,5-TETRAHYDROPYRIDIN-2-YL-PHENYL-5-(METHOXY-D3)-PYRAZINE-2-CARBOXAMIDES AND FLUORINATED DERIVATIVES THEREOF AS BACE1 INHIBITORS” (H. Lundbeck A/S, priority 2016, published 2018).

Assays:
[1] = Clearance in microsomes, cyno; format: in vitro ADME; details: cynomolgus monkey, 1 microM, read-out: CLint, Cyno (L/h/kg) ± SD (converted)
Description: (§1) Deuterated compounds were compared to their non-deuterated parent counterparts to determine the impact of deuteration on clearance results

Aβ40 = assay: Aβ levels in rat brain and plasma following BACE1 inhibition (Aβ40 ELISA); format: in vivo, Sprague Dawley rats; details: p.o.
Method: Assessment of […] in rat brain and plasma following BACE1 inhibition.
Young adult Male Sprague Dawley rats of approximately 250 g weight were purchased from Charles River and received vehicle (2.5% HP betaCD+1M MeSO4, pH 2.5) or 0-40 mg/kg of test compounds (dissolved in vehicle) by oral gavage (p.o). The compounds are dosed at a volume of 5 ml/kg. Cohorts of 5-10 animals were established for each treatment condition.
Studies were set up as acute dose response treatment studies were samples were taken at T=180 minutes after initial dosing, or as 12 h or 24 h timecourse treatment studies. At the end of the test period, the animals were stunned and decapitated with a guillotine. Trunk-blood was sampled in EDTA coated tubes after decapitation of the animal. The blood was centrifuged at 2200G at 4° C. for 15 minutes and the plasma was collected and frozen at −80° C. The blood was aliquoted for Aβ ELISA and DMPK analysis. Immediately following sacrifice, the brain was extracted and split into 2 halves. The left half was dissected; with the front forebrain taken for Aβ ELISA and the remainder used for DMPK analysis. These samples were also snap frozen on dry ice and stored at −80° C. until use for analysis. The right hemibrains were snap frozen on dry ice and stored at −80° C. for independent confirmatory Aβ ELISA evalution.
The cortex samples were thawed slightly on wet ice before they were homogenized with a small volume dispersing instrument (T10 basic ULTRA-TURRAX®) which was set at speed 5 for approximately 5-7 sec. The tissue was processed in a 10 times volume of the weight, for example 100 mg of tissue was homogenized in […] of Homogenization buffer. Homogenization buffer: 50 ml Milli Q water+[…]+0.2% Diethylamin (DEA)+1 tablet of Complete Protease inhibitor cocktail+[…] 4-(2-aminoethyl) benzenesulfonyl fluoride hydrochloride irreversible serine protease inhibitor (AEBSF).
After homogenization 450 μL aliquots of the samples are collected into a 1.5 ml Eppendorf tube and placed on wet ice, 0.5% NP-40 (50 ul) was added to all samples and then they were incubated on ice for 30 min. After which all samples were sonicated using an Ultrasonic homogenizer with 20 kHz homogeneous sound (SONOPLUS HD2070, Bandelin Electronic) 10 pulse set at 12-13% power to extract all the Aβ species. The samples were then centrifuged (Ole Dich 157 MPRF Micro centrifuge) at 20000G for 20 minutes at 4° C. After centrifugation […] of the supernatant was pipetted into 600 μL microtubes tubes and neutralized with 15 µL of 1M Tris-HCL buffer.
WAKO 294-62501 Human/Rat Abeta amyloid-40 kit was used for all ELISA analyses. 30 μL plasma samples or 30 μL of the cortex supernatants generated as described above were placed in 600 μL microtubes tubes on wet ice. To this 30 μL of 8M Urea (AppliChem A1049, 9025) are added to generate a 2-fold dilution. Both plasma and cortex supernatants are incubated on ice for 30 min. Standard rows were prepared from the standard peptide stock provided in the kit and standard diluent containing 1.6M Urea (200 μL 8M Urea+800 μL of standard diluent) and 0.8M Urea (400 μL 8M Urea+[…] Standard diluent). A serial 2-fold dilution of Aβ40 from 100 pmol/ml to 0 pmol/L was prepared for the assay.
After incubation with urea, all samples were further diluted by addition of 5 times standard diluent from the Kit. This was done by adding 240 μL Standard Diluent to 60 μL sample/urea mixture, which was then mixed well. 100 μL of each diluted sample was pipetted into designated wells of the ELISA plate in duplicates. The plate was then covered and incubated overnight at 4° C. The following day, the ELISA kit was brought to room temperature before use. The incubated plate was washed 5 times with the 20× washing solution diluted in Milli Q water. 100 μL HRP-conjugate was applied to each well, and the plate was covered and incubates at 4° C. for 1 hr. The wash was repeated again for 5 times. […]

[2] = Clearance in microsomes, rat; format: in vitro ADME; details: 1 microM, read-out: CLint, Rat (L/h/kg) ± SD (converted)
Description: as §1

[3] = Clearance in microsomes, human; format: in vitro ADME; details: 1 microM, read-out: CLint, Human (L/h/kg) ± SD (converted)
Description: as §1

BACE1 = BACE1 (Homo sapiens, UniProt P56817); assay: BACE1 binding assay (SPA-based); design: biotin (biotinylated form); made in house; host or cells: Freestyle HEK293 cells; details: pH 4.5, 10 nM radioligand
Chain of BACE1 (P56817 46-501): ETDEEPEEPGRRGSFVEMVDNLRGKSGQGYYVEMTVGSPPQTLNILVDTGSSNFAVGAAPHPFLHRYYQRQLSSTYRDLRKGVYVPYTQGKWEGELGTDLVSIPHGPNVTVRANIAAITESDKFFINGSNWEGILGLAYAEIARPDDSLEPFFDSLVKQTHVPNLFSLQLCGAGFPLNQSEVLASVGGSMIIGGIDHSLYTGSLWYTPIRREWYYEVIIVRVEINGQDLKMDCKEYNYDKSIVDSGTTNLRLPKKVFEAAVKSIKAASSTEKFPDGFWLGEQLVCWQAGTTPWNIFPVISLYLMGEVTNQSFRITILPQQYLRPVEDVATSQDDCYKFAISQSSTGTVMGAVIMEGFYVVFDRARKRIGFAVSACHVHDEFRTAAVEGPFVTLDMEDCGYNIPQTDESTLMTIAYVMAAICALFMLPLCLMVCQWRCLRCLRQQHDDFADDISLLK
Method: The binding assay was performed as SPA-based assay using a biotinylated form of human BACE1 recombinantly expressed and subsequently purified from Freestyle HEK293 cells. The binding assay was run in a 50 mM sodium acetate buffer, pH 4.5 containing 50 mM NaCl and 0.03% Tween-20 in white clear bottom 384 plates (Corning #3653). […] The plates were incubated for one hour at room temperature and counted in a Wallac Trilux counter. Total and non-specific binding were determined using buffer and 1 μM (final concentration) of the high affinity BACE1 reference inhibitor (S)-6-[3-chloro-5-(5-prop-1-ynyl-pyridin-3-yl)-thiophen-2-yl]-2-imino-3,6-dimethyl-tetrahydro-pyrimidin-4-one, respectively. For each test compound, a IC50 value (the concentration mediating 50% inhibition of the specific binding of the radioligand) was determined from concentration-response curve and used to calculate the Ki from the equation Ki=IC50/(1+L/Kd), where L and Kd are the final concentration of the radioligand used in the assay and the dissociation constant of the radioligand, respectively. The Kd of the radioligand was determined from saturation binding experiments.

## [2H]C([2H])([2H])Oc1cnc(C(=O)Nc2ccc(F)c([C@]3(C)CC[C@@](F)(CF)C(N)=N3)c2)cn1 [Example 1, N-(3-((2S,5S)-6-amino-5-fluoro-5-(fluoromethyl)-2-methyl-2,3,4,5-tetrahydropyridin-2-yl)-4-fluorophenyl)-5-(methoxy-d3)pyrazine-2-carboxamide]
[1]
  CLint scaled at 1 µM: 10 L/h/kg
Aβ40; 10 mg/kg, 0.5 h
  Aβ40 reduction (%) brain: −0.3%
  Aβ40 reduction (%) plasma: −0.4%
Aβ40; 10 mg/kg, 1 h
  Aβ40 reduction (%) brain: 17.2%
  Aβ40 reduction (%) plasma: 29.5%
Aβ40; 10 mg/kg, 3 h
  Aβ40 reduction (%) brain: 38.3%
  Aβ40 reduction (%) plasma: 21.7%
Aβ40; 10 mg/kg, 6 h
  Aβ40 reduction (%) brain: 39.4%
  Aβ40 reduction (%) plasma: 15.5%
Aβ40; 10 mg/kg, 12 h
  Aβ40 reduction (%) brain: 13.7%
  Aβ40 reduction (%) plasma: 20.7%
Aβ40; 20 mg/kg, 0.5 h
  Aβ40 reduction (%) brain: 14.7%
  Aβ40 reduction (%) plasma: 36.5%
Aβ40; 20 mg/kg, 1 h
  Aβ40 reduction (%) brain: 29.7%
  Aβ40 reduction (%) plasma: 41.4%
Aβ40; 20 mg/kg, 3 h
  Aβ40 reduction (%) brain: 38.5%
  Aβ40 reduction (%) plasma: 34.5%
Aβ40; 20 mg/kg, 6 h
  Aβ40 reduction (%) brain: 42.6%
  Aβ40 reduction (%) plasma: 36.9%
Aβ40; 20 mg/kg, 12 h
  Aβ40 reduction (%) brain: 34.5%
  Aβ40 reduction (%) plasma: 41.3%
Aβ40; 40 mg/kg, 0.5 h
  Aβ40 reduction (%) brain: 39.8%
  Aβ40 reduction (%) plasma: 43.0%
Aβ40; 40 mg/kg, 1 h
  Aβ40 reduction (%) brain: 43.9%
  Aβ40 reduction (%) plasma: 47.8%
Aβ40; 40 mg/kg, 3 h
  Aβ40 reduction (%) brain: 50.6%
  Aβ40 reduction (%) plasma: 47.1%
Aβ40; 40 mg/kg, 6 h
  Aβ40 reduction (%) brain: 59.5%
  Aβ40 reduction (%) plasma: 49.9%
Aβ40; 40 mg/kg, 12 h
  Aβ40 reduction (%) brain: 57.7%
  Aβ40 reduction (%) plasma: 41.5%
[2]
  CLint scaled at 1 µM: 0.9 L/h/kg
[3]
  CLint scaled at 1 µM: 0.2 L/h/kg
BACE1
  Ki: 17 nM
